In PubChem BioAssay AID755 (The Scripps Research Institute Molecular Screening Center, 2007) one finds IC50 data, which are given here for 5 molecules.

The source made the active and inactive calls.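 How the source made its calls: active means IC50 at or below 10 micromolar; inactive means IC50 above 10 micromolar.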 Where only a bound is given, the exact number is not on record here.

Chain of 5-hydroxytryptamine receptor 1A (Homo sapiens) (P08908 whole entry, looked up): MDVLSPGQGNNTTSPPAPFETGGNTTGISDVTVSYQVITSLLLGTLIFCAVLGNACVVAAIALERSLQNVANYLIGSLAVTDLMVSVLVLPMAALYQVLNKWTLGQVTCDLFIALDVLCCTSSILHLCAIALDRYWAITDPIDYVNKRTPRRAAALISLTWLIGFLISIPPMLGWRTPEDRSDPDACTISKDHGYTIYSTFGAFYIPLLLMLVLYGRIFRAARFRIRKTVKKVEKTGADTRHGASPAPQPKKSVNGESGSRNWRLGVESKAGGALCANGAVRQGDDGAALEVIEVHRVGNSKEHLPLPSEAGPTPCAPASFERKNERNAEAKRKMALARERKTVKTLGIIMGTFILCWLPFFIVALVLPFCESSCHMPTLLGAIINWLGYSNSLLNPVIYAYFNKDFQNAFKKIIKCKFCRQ

The test has as its target 5-hydroxytryptamine receptor 1A (Homo sapiens) (UniProt P08908). As to the kind of experiment: IC50 of serotonin HTR1A blockade – cell-based, CHO, Ga15 NFAT-bla reporter, dose response (AID 755). Particulars: CHO 5-HT1A Ga15 NFAT-BLA reporter, FRET antagonist.
Regarding `CC(=O)Oc1ccc(N2C(=O)C3C(C2=O)C2(C)C=CC3(C)O2)cc1` (stereo not given), the IC50 was 7.33 µM.
As for `O=C1C2C3C=CC(CO)(O3)C2C(=O)N1c1ccc(-c2ccccc2)cc1` (stereo not given), the IC50 result was “inactive”.
As to `COc1cc2c(cc1OC)C1=C(C#N)CC/C(=N\S(=O)(=O)c3ccccc3)N1CC2`, the IC50 was > 40 µM (inactive).
The same measure for `COc1ccc(N2C(=O)CC(NCc3ccncc3)C2=O)cc1` (stereo not given): > 40 µM (inactive).
As for `CSc1ccccc1N=CC1=C(O)CC(C)(C)CC1=O`, the IC50 is 1.88 µM.

The term IC50 denotes the concentration at which inhibition is half-maximal.
